Test results reported in patent US9499493B2, “2,4-pyrimidinediamine compounds and their uses” (Rigel Pharmaceuticals, Inc., priority 2002, dated 2016).
Read-outs that look alike come from different tables or passages of the source.

Assays:
[1] = system: FcγRI-mediated degranulation; assay: FcγRI receptor-mediated degranulation (activation with anti-human IgG Fab fragment); format: cell-based; conditions: cells not primed with IgE, activated with rabbit anti-human IgG Fab fragment
[2] = 14-day repeat-dose intranasal toxicity study in New Zealand White rabbits; format: in vivo
Protocol: A 14-day repeat-dose intranasal toxicity study in New Zealand White rabbits was performed at doses of 1.7, 3.4 or 5.0 mg/kg/day. In life parameters included: clinical observations, body weights, food consumption, ophthalmology, hematology, clinical chemistry, gross necropsy, organ weights, toxicokinetic assessments and histopathology (including the nasal cavity).

[3] = 14-day repeat-dose intranasal toxicity study in Cynomolgus monkeys; format: in vivo
Protocol: A 14-day repeat-dose intranasal toxicity study in Cynomolgus monkeys was performed at doses of 2.1, 4.5 or 6.3 mg/kg/day. In life parameters included: clinical observations, body weights, food consumption, ophthalmology, blood pressure, electrocardiography, hematology, clinical chemistry, urinalysis, immunotoxicological assessment, gross necropsy, organ weights, toxicokinetic assessments and histopathology (including the nasal cavity).

[4] = Sheep model of allergic asthma (Ascaris suum challenge); format: in vivo
Protocol: Sheep develop bronchoconstriction within minutes of exposure to inhaled antigen (Ascaris suum), with maximal airflow obstruction during the early allergic response (EAR). Release of preformed mast cell mediators is likely responsible for this early phase of airflow obstruction. […] In the sheep, AHR develops a few hours following antigen challenge, and can persist for up to 2 weeks.
In the sheep model of allergic asthma, sheep are administered aerosols of test article via an endotracheal tube, followed by an aerosol challenge with antigen extracted from the roundworm, Ascaris suum, to which the sheep are naturally allergic. Allergen challenge leads to direct bronchoconstriction (both EAR and LAR) and a persistent non-specific AHR. These three characteristics are similar to those seen in human allergic asthmatics. The activity of the test agent is determined by changes in the lung resistance (RL), which is calculated from measurements of transpulmonary pressure, flow, and respiratory volume. […] The LAR is a less pronounced increase in RL, which starts approximately 5-6 hours following allergen challenge and is resolved by 8 hours post-challenge. Twenty-four hours after the challenge, a dose response to carbachol is measured to determine the AHR, which is expressed as the dose of carbachol required to increase RL by 400% over baseline. (This measurement is referred to as the provocative concentration of carbachol that elicits a 400% increase in RL over baseline (PC400). The data are compared to historical control data for the same individual when administered a saline control aerosol and challenged with Ascaris suum.

[5] = system: IgE-induced degranulation of tissue mast cells; assay: Mouse model of passive cutaneous anaphylaxis (PCA); format: in vivo; conditions: for % Inhibition (PCA) / Plasma level: PO
Protocol: (§1) This model provides a direct measure of IgE-induced degranulation of tissue mast cells. In this model, IgE primed animals are exposed to an allergen challenge, and the change in permeability of dermal vasculature that results from histamine release from mast cells is measured by change in the amount of dye leakage into surrounding tissue. Inhibition of mediator release by compounds that modulate mast cell degranulation is easily measured by extracting the dye from the tissue.
(§2) In the PCA assay mice are passively sensitized by intradermal injection with anti-dinitrophenol (DNP) IgE antibodies (Day −1). At predetermined times animals are treated with the test agent (Day 0). The modulatory effect of the agent on cutaneous mast cell degranulation is measured following intravenous injection of DNP conjugated to human serum albumin (HSA-DNP), together with Evans blue dye. The resulting cross-linking of the IgE receptor and subsequent mast cell degranulation-induced increase in vascular permeability is determined by measuring the amount of dye extravasation into the tissue. Dye is extracted from the tissue by formamide, and the absorbance of this extract is read at 620 nm.

[6] = Exposure to skin and eyes; conditions: in vivo
Text: (§3) A short discussion of key toxicology studies is provided.

CHMC cells [7] = assay: Phosphorylation of proteins downstream of Syk / LYN kinase in the FcεRI cascade, activated CHMC cells; format: cell-based, human; conditions: varying concentrations, FIG. 10
Syk kinase = Syk kinase (Homo sapiens (Human), UniProt P43405); assay: Isolated Syk kinase: phosphorylation of a peptide substrate or endogenous substrate (LAT); conditions: increasing concentrations; FIG. 8
[8] = Genetic toxicology testing
Text: as §3

CHMC cells [9] = assay: ionomycin-induced calcium ion flux in CHMC cells; format: cell-based, human; conditions: 10 μM compound
[10] = 14-day repeat-dose toxicity studies (summary of non-clinical safety program); format: in vivo, rabbits and primates; mice and rats
Text: as §3

CHMC cells [11] = assay: anti-IgE-induced calcium ion flux in CHMC cells; format: cell-based, human; conditions: 10 μM compound
[12] = Immediacy (time course) of inhibitory activity; format: cell-based; conditions: FIG. 5
BMMC cells = assay: Phosphorylation of proteins downstream of Syk kinase in the IgE receptor cascade, activated BMMC cells; format: cell-based, mouse; conditions: varying concentrations, FIG. 7
[13] = Core safety pharmacology battery (cardiovascular, respiratory, central nervous system function); conditions: in vivo
Text: as §3

[14] = format: in vivo; conditions: rat, 50, 150 and 300 mg/kg
[15] = mouse, in vivo
[16] = Mouse model of passive cutaneous anaphylaxis (PCA); format: in vivo; conditions: mouse, plasma, PO, 1.5% Avicel/water, 200 mg/kg, read-out: Plasma level (duration of action)
Protocol: as §1, §2

in vivo = conditions: mouse, po
[17] = system: Salmonella-Escherichia coli tester strains; conditions: Salmonella / Escherichia coli
[18] = Pharmacokinetics / oral bioavailability in rats; format: in vivo; conditions: rat, in vivo
Protocol: Over 50 2,4-pyrimidinediamine compounds of the invention were tested for oral bioavailability. For the study, compounds were dissolved in various vehicles (e.g. PEG 400 solution and CMC suspension) for intravenous and oral dosing in the rats. Following administration of the drug, plasma samples were obtained and extracted. The plasma concentrations of the compounds were determined by high performance liquid chromatography/tandem mass spectrometry (LC/MS/MS) methods. Pharmacokinetic analyses were performed based on the plasma concentration data. The pharmacokinetic parameters of interest include Clearance (CL), Volume of distribution at steady-state (Vss), terminal half-life (t1/2), and oral bioavailability (% F).

[19] = in vitro chromosomal aberration assay
[20] = system: bone marrow derived mast cells (BMMC); assay: BMMC high cell density ionomycin activation: hexosaminidase; format: cell-based, mouse; conditions: second part of TABLE 1, read-out: BMMC Ionomycin hexos. IC50
[21] = system: bone marrow derived mast cells (BMMC); assay: BMMC high cell density IgE activation: hexosaminidase; format: cell-based, mouse; conditions: anti-IgE, second part of TABLE 1, read-out: BMMC anti-IgE hexos. IC50
Method in brief: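 IgE-sensitized BMMC at 1-3×10^6 cells/ml preincubated 1 hour at 37° C. with compound (0.5% DMSO), then stimulated 1 hour with DNP-BSA (6× stimulus 60 ng/ml). Supernatant hexosaminidase measured with 2 mM 4-methylumbelliferyl-N-acetyl-glucosaminide substrate at 37° C., read at 5–30 minutes.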

[22] = system: cultured human mast cells (CHMC); assay: CHMC low cell density anti-IgE activation: hexosaminidase (Hexos.) release; format: cell-based
[23] = system: cultured human mast cells (CHMC); assay: CHMC low cell density ionomycin activation: hexosaminidase (Hexos.) release; format: cell-based
basophil cells [24] = assay: Basophil IgE activation: histamine release assay; format: cell-based, human; conditions: Basophils, anti-IgE
Protocol: (§4) The basophil activation assay was carried out using whole human peripheral blood from donors allergic to dust mites with the majority of the red blood cells removed by dextran sedimentation. Human peripheral blood was mixed 1:1 with 3% dextran T500 and RBCs were allowed to settle for 20-25 min. The upper fraction was diluted with 3 volumes of D-PBS and cells were spun down for 10 min at 1500 rpm, RT. Supernatant was aspirated and cells were washed in an equal volume MT-buffer. Finally, cells were resuspended in MT-buffer containing 0.5% DMSO in the original blood volume. 80 uL cells were mixed with 20 uL compound in the presence of 0.5% DMSO, in triplicate, in a V-bottom 96-well tissue culture plate. A dose range of 8 compound concentrations was tested resulting in a 10-point dose response curve including maximum (stimulated) and minimum (unstimulated) response. […] The cells were stimulated for 30 minutes at 37° C., 5% CO2. The plate was spun for 10 min at 1500 rpm at room temperature and 80 uL the supernatant was harvested for histamine content analysis using the histamine ELISA kit supplied by Immunotech. The ELISA was performed according to supplier's instructions.

basophil cells [25] = assay: Basophil ionomycin activation: histamine release assay; format: cell-based, human; conditions: Basophils
Protocol: as §4
Assays for ionomycin-induced basophil cell degranulation were carried out as described for the Basophil IgE or Dustmite Activation Assay (Section 6.4.6, supra), with the exception that following incubation with compound, cells were stimulated with 20 μl of 2 μM ionomycin.

[26] = 30 mg/sheep, pretreatment 15 min, 10% ethanol
[27] = 67% PEG/33% citrate buffer, pretreatment 10 min, 50 mg/kg
[28] = 67% PEG/33% citrate buffer, pretreatment 10 min, 100 mg/kg
[29] = 67% PEG/33% citrate buffer, pretreatment 10 min, 200 mg/kg

Oc1cccc(Nc2ncc(F)c(Nc3cccc(O)c3)n2)c1 [R921218, N2,N4-Bis(3-hydroxyphenyl)-5-fluoro-2,4-pyrimidinediamine]
FcγRI-mediated degranulation (in words) [1]: inhibit FcγRI-mediated degranulation | adverse findings ([2]; intranasal 1.7, 3.4 or 5.0 mg/kg/day): no adverse findings | NOAEL at 14 days ([2]; rabbit, in vivo, inhaled or intranasal, intranasal, New Zealand White rabbits, read-out: NOAEL (no observed adverse effect level)): 5 mg/kg/day | NOAEL at 14 days ([3]; cynomolgus monkey, in vivo, inhaled or intranasal, intranasal, Cynomolgus monkeys, read-out: NOAEL (no observed adverse effect level)): 6.3 mg/kg/day | adverse findings ([3]; intranasal 2.1, 4.5 or 6.3 mg/kg/day): no adverse findings | AHR (% inhibition) [4, 26]: 101% | EAR (% inhibition) [4, 26]: 66% | LAR (% inhibition) [4, 26]: 78% | EAR (in words) ([4]; aqueous suspension): failed to inhibit | % Inhibition (PCA) [5, 27]: 7% | Plasma level [5, 27]: 3 µg/mL | % Inhibition (PCA) [5, 28]: 11% | Plasma level [5, 28]: 4 µg/mL | % Inhibition (PCA) [5, 29]: 50% | Plasma level [5, 29]: 18 µg/mL | FcεR-mediated vascular leakage with increasing doses (in words) ([5]; solution (67% PEG/33% citrate buffer) or aqueous suspension (1.5% Avicel)): dose-dependent inhibition | effects after exposure to skin and eyes [6]: nor were there untoward effects | phosphorylation of proteins downstream of Syk kinase (CHMC cells [7]): inhibit | Syk kinase phosphorylation of a peptide substrate (Syk kinase): dose responsive inhibition | Syk kinase phosphorylation of an endogenous substrate (LAT) (Syk kinase): dose responsive inhibition | mutagenic or clastogenic potential [8]: no evidence for mutagenic or clastogenic potential | ionomycin-induced Ca2+ flux (CHMC cells [9]): no effect | dose limiting toxicity, intranasal route, non-rodents (rabbits and primates) [10]: no dose limiting toxicity | dose limiting toxicity, oral route, rodents (mice and rats) [10]: no dose limiting toxicity | anti-IgE-induced Ca2+ flux (CHMC cells [11]): inhibited | onset of inhibitory activity [12]: immediacy of the inhibitory activity | phosphorylation of various proteins downstream of Syk kinase (BMMC cells): inhibit | findings in core safety pharmacology battery [13]: no adverse findings

Nc1cccc(Nc2ncc(F)c(Nc3cccc(N)c3)n2)c1 [R921302, N2,N4-Bis(3-aminophenyl)-5-fluoro-2,4-pyrimidinediamine]
FcγRI-mediated degranulation (in words) [1]: inhibit FcγRI-mediated degranulation | tolerability, oral doses for 32 days [14]: appeared to be well tolerated | oral dose tolerated for up to 7-days [15]: 1000 mg/kg | tolerability, 28-day oral toxicity study ([15]; 100 mg/kg): appeared to be well tolerated | tolerability, 28-day oral toxicity study ([15]; 300 mg/kg): not tolerated | Plasma level ([5]; 1.5% Avicel/water, pretreatment 60 min, 50 mg/kg): 25 µg/mL | Plasma level ([5]; 1.5% Avicel/water, pretreatment 60 min, 100 mg/kg): 38 µg/mL | Plasma level ([5]; 1.5% Avicel/water, pretreatment 60 min, 150 mg/kg): 64 µg/mL | Plasma level ([5]; 1.5% Avicel/water, pretreatment 60 min, 200 mg/kg): 105 µg/mL | time prior to antigen-induced receptor signaling over which vascular permeability was inhibited before efficacy began to decrease ([5]; mouse, in vivo): 1 to 2 h | concentration at 30 min ([16]; pretreatment 30 min): 88 µg/mL | concentration at 60 min ([16]; pretreatment 60 min): 53 µg/mL | concentration at 120 min ([16]; pretreatment 120 min): 61 µg/mL | concentration at 240 min ([16]; pretreatment 240 min): 8 µg/mL | NOAEL at 14 days (in vivo): 100 mg/kg | Ames test result [17]: test positive in tester strain TA98 with S9 and TA1537, with and without metabolic activation | metabolic stability in pharmacokinetics studies (in words) [18]: most metabolically stable compound | clastogenic potential [19]: not clastogenic

Fc1cnc(Nc2ccc(N3CCOCC3)cc2)nc1Nc1ccc(N2CCOCC2)cc1 [R926114, N2,N4-Bis[4-(N-morpholino)phenyl]-5-fluoro-2,4-pyrimidinediamine]
IC50 [20]: > 10 µM | IC50 [21]: > 10 µM | IC50 [22]: 3.43 µM | IC50 [23]: 8.1 µM | IC50 (basophil cells [24]): 1.7 µM | IC50 (basophil cells [25]): 10 µM
